In patent US20120270935A1, “FORMULATIONS” (priority 2009, published 2012):
Values after ≈ are worked out from the molar mass of the structure shown. Where two headings read alike, the source gives them in different places.

Assays:
S. mutans ATCC 25175 = experiment: MIC assay; format: cell-based, Streptococcus mutans; settings: Wilkins-Chalgren broth pH 7 (±0.2)
Procedure: This is a standard international method for quantitatively assessing the antimicrobial activity of a compound in a liquid medium. The method used a sterile 96-well microtitre plate, capable of holding about 200 μl of liquid per well. […] The culture medium was as described above.
(§1) The wells were inoculated with a liquid suspension of freshly grown micro-organism and incubated under the conditions described above. After incubation, the microtitre plate was examined visually (with the aid of a light box) for cloudiness in each well, which would indicate microbial growth. The MIC value was recorded as the lowest concentration of test compound required to inhibit microbial growth, ie the lowest concentration for which the liquid in the well remained clear.
(§2) The assays included both negative (culture medium with no micro-organisms) and positive (culture medium plus diluting solvent plus micro-organism) controls.

C. striatum NCTC 764 [1] = experiment: MBC assay; format: cell-based, Corynebacterium striatum; settings: triplicate
Description: (§3) (a) staphylococci. The Staphylococcus aureus strain used was ATCC 29213. S. aureus and other staphylococci are common causes of a wide range of skin, skin structure and wound infections; S. aureus is also known to exacerbate eczema. The ATCC 29213 strain is known to be susceptible to beta-lactam antibiotics such as methicillin. The Staphylococcus epidermidis strain used was NCTC 11047. Staph. epidermidis forms part of the resident flora of skin and is an opportunistic pathogen which can cause biofilms to grow for instance on plastic surgical implants such as catheters. Unless otherwise stated, the staphylococci were cultured and maintained on Mueller-Hinton Medium (agar and broth) at pH 7.2; cultures were incubated aerobically at 37° C. for 19-20 hours, at pH 7 (±0.2). (b) C. striatum NCTC 764. Corynebacterium striatum is closely related to organisms (aerobic diphtheroids of the genus Corynebacterium) that cause body odour. It was cultured and maintained on Mueller-Hinton medium (agar and broth). All cultures were incubated aerobically at 37° C. for 72 hours, at pH 7 (±0.2). (c) streptococci. The strains tested were S. mutans ATCC 25175 and S. pyogenes ATCC 12344. S. mutans is a Gram-positive, microaerophilic bacterium which plays a significant role in dental caries and in infective endocarditis. Streptococcus pyogenes is associated with skin, soft tissue, burn and wound infections. S. mutans was cultured and maintained on Wilkins-Chalgren Anaerobe medium+1 g/L glucose (agar and broth); it was incubated in air at 37° C. for 48 hours, at pH 7 (±0.2) with 5% carbon dioxide. S. pyogenes was cultured and maintained on Mueller-Hinton medium (broth and agar) and was incubated under the same conditions as S. mutans.
This assay, normally carried out after an MIC assay, determines the minimum concentration of a compound that is lethal to the micro-organism being tested.
These samples were then individually sub-cultured on antibiotic-free agar medium, under the incubation conditions described above. Following incubation they were examined visually for microbial growth. […]

C. striatum NCTC 764 [2] = experiment: MIC assay; format: cell-based, Corynebacterium striatum; settings: triplicate
Description: as §3, with “S. pyogenes was cultured and maintained on Mueller-Hinton medium (broth and agar) and was incubated under the same conditions as S. mutans.” left out
This is a standard international method for quantitatively assessing the antimicrobial activity of a compound in a liquid medium. […]
The wells were inoculated with a liquid suspension of freshly grown micro-organism and incubated under the conditions described above. […] The MIC value was recorded as the lowest concentration of test compound required to inhibit microbial growth, ie the lowest concentration for which the liquid in the well remained clear. […]

P. acnes NCTC 737 = experiment: Minimum inhibitory concentration (MIC) assay, broth microtitre; format: cell-based, Propionibacterium acnes; settings: compound in DMSO, triplicate
Procedure: The first test micro-organism used was Propionibacterium acnes NCTC 737. This is a propionibacterial strain and is the type strain of the […]; it is fully susceptible to antibiotics.
The propionibacteria were cultured and maintained on Wilkins-Chalgren Anaerobe Medium (agar and broth) at pH 6.0; all cultures were incubated anaerobically at 37° C. for 72 hours.
This is a standard international method for quantitatively assessing the antimicrobial activity of a compound in a liquid medium. The method used a sterile 96-well microtitre plate, capable of holding about 200 μl of liquid per well. The wells contained liquid culture medium and ranges of decreasing concentrations of the relevant test compound in doubling dilutions (eg 1000, 500, 250, 125 . . . μg/ml, etc. down to 0.49 μg/ml). The culture medium was as described above.
as §1, §2
DDA assays, as described above, were carried out using as the test formulation the gel prepared in Example 2B above. Also tested was the Example 2B gel minus the Klucel™ thickener, which was also subjected to MIC and MBC assays. For the DDAs, which were performed in triplicate, 100 μl of the relevant formulation was loaded onto each disc, and zones of inhibition were recorded after 3 days' anaerobic incubation at 37° C. The MIC and MBC tests were performed in duplicate and the results recorded after 3 days and 7 days respectively, post-subculture onto drug-free medium. […]

SMILES	MIC (S. mutans ATCC 25175; Streptococcus mutans, ATCC25175, read-out: MIC)	MBC (C. striatum NCTC 764 [1]; Corynebacterium striatum, NCTC764, read-out: MBC)	MIC (C. striatum NCTC 764 [2]; Corynebacterium striatum, NCTC764, read-out: MIC)	MIC (P. acnes NCTC 737; Cutibacterium acnes, NCTC737, read-out: MIC)	MIC (S. mutans ATCC 25175)	MBC (C. striatum NCTC 764 [1])	MIC (C. striatum NCTC 764 [2])	MIC (P. acnes NCTC 737)
CC(=O)c1c(O)c(C)c(O)c2c1OC1=CC(=O)C(C(C)=O)C(=O)C12C (centres unmarked) [Usnic acid, 2,6-diacetyl-7,9-dihydroxy-8,9b-dimethyl-1,3(2H,9bh)-dibenzofurandione]	3.9 µg/mL (≈ 11.3 µM)	62.5 µg/mL (≈ 182 µM)	7.8 µg/mL (≈ 22.7 µM)	0.49 µg/mL (≈ 1.42 µM)	–	–	–	–
CC(=O)c1c([O-])c(C)c([O-])c2c1OC1=CC(=O)C(C(C)=O)C(=O)C12C.[Cu+2] (centres unmarked) [Copper usnate, copper (II) usnate]	–	–	–	–	1.95 µg/mL	62.5 µg/mL	3.9 µg/mL	0.49 µg/mL
